Tested on: patients with advanced solid tumours
Experiment: Phase I toxicity of Carzelesin, 4-weekly 10 min IV infusion (NCI-CTC grading)
Format: in vivo, human
Conditions: for No. of courses with delayed recovery (no. of pts): delayed more than 3 days
Description: Carzelesin is a cyclopropylpyrroloindole analogue which acts as a DNA-sequence-specific alkylating agent. In this phase I study, Carzelesin was given as a 4-weekly 10 min IV infusion to 51 patients with advanced solid tumours. Patients received a median of two courses (range 1–5) at one of nine dose levels: 24, 48, 96, 130, 150, 170, 210, 250 and 300 μg m^−2. According to NCI-CTC criteria, non-haematological toxicities (grade 1/2) included fever, nausea and vomiting, mucositis and anorexia, none of which was clearly dose related. The dose-limiting toxicity was haematological and consisted mainly of neutropenia and to a lesser extent thrombocytopenia. From the dose level 150 μg m^−2, the haematological toxicity (particularly thrombocytopenia) was delayed in onset, prolonged and cumulative in some patients. In several courses, double WBC nadirs occurred. The maximum tolerated dose for a single course was 300 μg m^−2. From the dose level 170 μg m^−2, the intended dose intensity could not be delivered to most patients receiving > 2 courses owing to cumulative haematological toxicity. The dose level with the best dose intensity for multiple courses was 150 μg m^−2. The pharmacokinetics of Carzelesin and its metabolites (U-76,073; U-76,074) have been established in 31 patients during the first course of treatment using a HPLC method. […] The concentration of U-76,074 (active metabolite) extended above the lower limit of quantitation (1 ng ml^−1) for short periods of time and only at the higher dose levels. There was no relationship between neutropenia and the AUC of the prodrug Carzelesin, but the presence of detectable plasma levels of the active metabolite U-76,074 was usually associated with a substantial decrease in ANC values. © 1999 Cancer Research Campaign
Carzelesin (U-80,244, Figure 1A) is a cyclopropylpyrroloindole (CPI) prodrug analogue of CC-1065. […] CPI drugs are a class of compounds with unique DNA interactive properties. These agents fit into the minor groove region of DNA, and the CPI function in the molecule mediates a covalent binding to the N3 position of adenine in A-T rich regions, thus forming DNA adducts in a sequence selective fashion (Hurley et al, 1984; Reynolds et al, 1985). Three new CPIs have now been developed. […] Bizelesin differs from the classical CPI drugs in that it contains two chloromethyl functions, which are both converted (via intramolecular rearrangements) to the CPI alkyl- ating species that interact with DNA. Consequently, this agent is capable of forming DNA interstrand cross-links (Lee et al, 1991). […] Therefore, efforts were directed to modu- late the alkylation rate by the preparation of CPI prodrugs that would require chemical or enzymatic conversion. The activation of Carzelesin is a two-step reaction with hydrolysis of the phenyl- urethane substituent to form the intermediate compound U-76,073, followed by ring closure to form the active product U-76,074 (Figure 1B). […] This higher efficacy may be related to the pharmacologic features of the compound. […] Phase I study of Carzelesin (U-80,244) given (4-weekly) by intravenous bolus schedule A Awada1, CJA Punt2, MJ Piccart1, O Van Tellingen3, L Van Manen2, J Kerger1, Y Groot4, J Wanders4, J Verweij5 and DJTh Wagener2 1Institut Jules Bordet, Bd de Waterloo 125, 1000 Brussels, Belgium; 2University Hospital, Geert Grooteplein 8, Box 9101, 6500 HB Nijmegen, The Netherlands; 3The Netherlands Cancer Institute (Antoni van Leeuwenhoek Huis), Plesmanlaan 121, 1066 CX Amsterdam, The Netherlands; 4European Organization for Research and Treatment of Cancer - New Drug Development Office, PO Box 7057, Amsterdam, The Netherlands; 5Rotterdam Cancer Institute, Groene Hilledijk 301, 3075 EA Rotterdam, The Netherlands; on behalf of the EORTC Early Clinical Studies Group and EORTC NDDO Summary Carzelesin is a cyclopropylpyrroloindole analogue which acts as a DNA-sequence-specific alkylating agent. […]

SMILES: CCN(CC)c1ccc2cc(C(=O)Nc3ccc4[nH]c(C(=O)N5C[C@@H](CCl)c6c5cc(OC(=O)Nc5ccccc5)c5[nH]cc(C)c65)cc4c3)oc2c1 [Carzelesin]
- dose level with the best dose intensity for multiple courses (4-weekly 10 min IV infusion): 150 μg m^−2
- maximum tolerated dose for a single course (4-weekly 10 min IV infusion): 300 μg m^−2
- No. of reduced courses due to haematological toxicity (Table 2, dose level 24 μg m-2): 0
- No. of courses with delayed recovery (no. of pts) (Table 2, dose level 24 μg m-2): 0
- No. of reduced courses due to haematological toxicity (Table 2, dose level 48 μg m-2): 0
- No. of courses with delayed recovery (no. of pts) (Table 2, dose level 48 μg m-2): 0
- No. of reduced courses due to haematological toxicity (Table 2, dose level 96 μg m-2): 0
- No. of courses with delayed recovery (no. of pts) (Table 2, dose level 96 μg m-2): 0
- No. of reduced courses due to haematological toxicity (Table 2, dose level 130 μg m-2): 0
- No. of courses with delayed recovery (no. of pts) (Table 2, dose level 130 μg m-2): 0
- No. of courses with delayed recovery (no. of pts) (Table 2, dose level 150 μg m-2): 3 (1)
- No. of reduced courses due to haematological toxicity (Table 2, dose level 150 μg m-2, reduced to 130, 1 patient): 3
- No. of reduced courses due to haematological toxicity (Table 2, dose level 170 μg m-2): 0
- No. of courses with delayed recovery (no. of pts) (Table 2, dose level 170 μg m-2): 4 (4)
- No. of courses with delayed recovery (no. of pts) (Table 2, dose level 210 μg m-2): 5 (5)
- No. of reduced courses due to haematological toxicity (Table 2, dose level 210 μg m-2, reduced to 96, 105, 150, 4 patients): 6
- No. of courses with delayed recovery (no. of pts) (Table 2, dose level 250 μg m-2): 3 (3)
- No. of reduced courses due to haematological toxicity (Table 2, dose level 250 μg m-2, reduced to 130, 170, 3 patients): 6
- No. of courses with delayed recovery (no. of pts) (Table 2, dose level 300 μg m-2): 2 (2)
- No. of reduced courses due to haematological toxicity (Table 2, dose level 300 μg m-2, reduced to 150, 2 patients): 2
- Neutropenia grade 3/4, No. of courses (Table 3, dose level 24 μg m-2): 0
- Neutropenia grade 3/4, No. of patients (worst grade per patient) (Table 3, dose level 24 μg m-2): 0
- Neutropenia grade 3/4, patients following the first course (Table 3, dose level 24 μg m-2): 0
- No. of toxic patients following the first course (Table 3, dose level 24 μg m-2): 0
- Thrombocytopenia grade 3/4, No. of courses (Table 3, dose level 24 μg m-2): 0
- Thrombocytopenia grade 3/4, No. of patients (worst grade per patient) (Table 3, dose level 24 μg m-2): 0
- Thrombocytopenia grade 3/4, patients following the first course (Table 3, dose level 24 μg m-2): 0
- No. of toxic patients/courses (grade 3/4 neutropenia and/or thrombocytopenia) (Table 3, dose level 24 μg m-2, 4/6 evaluable patients/courses): 0
- Neutropenia grade 3/4, No. of courses (Table 3, dose level 48 μg m-2): 0
- Neutropenia grade 3/4, No. of patients (worst grade per patient) (Table 3, dose level 48 μg m-2): 0
- Neutropenia grade 3/4, patients following the first course (Table 3, dose level 48 μg m-2): 0
- No. of toxic patients following the first course (Table 3, dose level 48 μg m-2): 0
- Thrombocytopenia grade 3/4, No. of courses (Table 3, dose level 48 μg m-2): 0
- Thrombocytopenia grade 3/4, No. of patients (worst grade per patient) (Table 3, dose level 48 μg m-2): 0
- Thrombocytopenia grade 3/4, patients following the first course (Table 3, dose level 48 μg m-2): 0
- No. of toxic patients/courses (grade 3/4 neutropenia and/or thrombocytopenia) (Table 3, dose level 48 μg m-2, 3/7 evaluable patients/courses): 0
- Neutropenia grade 3/4, No. of courses (Table 3, dose level 96 μg m-2): 0/1
- Neutropenia grade 3/4, No. of patients (worst grade per patient) (Table 3, dose level 96 μg m-2): 0/1
- Neutropenia grade 3/4, patients following the first course (Table 3, dose level 96 μg m-2): 0/1
- No. of toxic patients following the first course (Table 3, dose level 96 μg m-2): 2
- Thrombocytopenia grade 3/4, No. of courses (Table 3, dose level 96 μg m-2): 1/0
- Thrombocytopenia grade 3/4, No. of patients (worst grade per patient) (Table 3, dose level 96 μg m-2): 1/0
- Thrombocytopenia grade 3/4, patients following the first course (Table 3, dose level 96 μg m-2): 1/0
- No. of toxic patients/courses (grade 3/4 neutropenia and/or thrombocytopenia) (Table 3, dose level 96 μg m-2, 5/8 evaluable patients/courses): 2/2
- Neutropenia grade 3/4, No. of courses (Table 3, dose level 130 μg m-2): 2/0
- Neutropenia grade 3/4, No. of patients (worst grade per patient) (Table 3, dose level 130 μg m-2): 2/0
- Neutropenia grade 3/4, patients following the first course (Table 3, dose level 130 μg m-2): 0
- No. of toxic patients following the first course (Table 3, dose level 130 μg m-2): 0
- Thrombocytopenia grade 3/4, No. of courses (Table 3, dose level 130 μg m-2): 2/1
- Thrombocytopenia grade 3/4, No. of patients (worst grade per patient) (Table 3, dose level 130 μg m-2): 2/1
- Thrombocytopenia grade 3/4, patients following the first course (Table 3, dose level 130 μg m-2): 0
- No. of toxic patients/courses (grade 3/4 neutropenia and/or thrombocytopenia) (Table 3, dose level 130 μg m-2, 5/9 evaluable patients/courses): 3/3
- Neutropenia grade 3/4, No. of courses (Table 3, dose level 150 μg m-2): 2/2
- Neutropenia grade 3/4, No. of patients (worst grade per patient) (Table 3, dose level 150 μg m-2): 1/2
- Neutropenia grade 3/4, patients following the first course (Table 3, dose level 150 μg m-2): 0/1
- No. of toxic patients following the first course (Table 3, dose level 150 μg m-2): 2
- Thrombocytopenia grade 3/4, No. of courses (Table 3, dose level 150 μg m-2): 1/1
- Thrombocytopenia grade 3/4, No. of patients (worst grade per patient) (Table 3, dose level 150 μg m-2): 1/1
- Thrombocytopenia grade 3/4, patients following the first course (Table 3, dose level 150 μg m-2): 1/1
- No. of toxic patients/courses (grade 3/4 neutropenia and/or thrombocytopenia) (Table 3, dose level 150 μg m-2, 6/14 evaluable patients/courses): 4/5
- Neutropenia grade 3/4, No. of courses (Table 3, dose level 170 μg m-2): 1/3
- Neutropenia grade 3/4, No. of patients (worst grade per patient) (Table 3, dose level 170 μg m-2): 1/3
- Neutropenia grade 3/4, patients following the first course (Table 3, dose level 170 μg m-2): 0/2
- No. of toxic patients following the first course (Table 3, dose level 170 μg m-2): 4
- Thrombocytopenia grade 3/4, No. of courses (Table 3, dose level 170 μg m-2): 5/2
- Thrombocytopenia grade 3/4, No. of patients (worst grade per patient) (Table 3, dose level 170 μg m-2): 3/2
- Thrombocytopenia grade 3/4, patients following the first course (Table 3, dose level 170 μg m-2): 3/0
- No. of toxic patients/courses (grade 3/4 neutropenia and/or thrombocytopenia) (Table 3, dose level 170 μg m-2, 9/16 evaluable patients/courses): 6/8
- Neutropenia grade 3/4, No. of courses (Table 3, dose level 210 μg m-2): 3/3
- Neutropenia grade 3/4, No. of patients (worst grade per patient) (Table 3, dose level 210 μg m-2): 2/3
- Neutropenia grade 3/4, patients following the first course (Table 3, dose level 210 μg m-2): 3/1
- No. of toxic patients following the first course (Table 3, dose level 210 μg m-2): 4
- Thrombocytopenia grade 3/4, No. of courses (Table 3, dose level 210 μg m-2): 0/2
- No. of toxic patients/courses (grade 3/4 neutropenia and/or thrombocytopenia) (Table 3, dose level 210 μg m-2, 7/10 evaluable patients/courses): 5/6
- Thrombocytopenia grade 3/4, No. of patients (worst grade per patient) (Table 3, dose level 210 μg m-2, one patient had pre-existing grade 1 thrombocytopenia): 0/2

Source: paper PMC2362731, “Phase I study of Carzelesin (U-80,244) given (4-weekly) by intravenous bolus schedule” (British Journal of Cancer, 1999)
